Key:
Format in all cases: in vivo
[1] = test system: Nightshade; experiment: Test C preemergence; conditions: Rate 500 g/ha, visual evaluation after 12 to 14 days
[2] = test system: lambsquarters (Chenopodium album); experiment: Test C preemergence
In short: (§1)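 Test chemicals, formulated in a non-phytotoxic solvent mixture with surfactant, were applied preemergence to planted seeds or postemergence to plants 2 to 18 cm tall (1- to 4-leaf stage). After 12 to 14 days in a greenhouse, injury was visually rated against untreated controls on a 0–100 scale.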

[3] = test system: kochia (Kochia scoparia); experiment: Test C preemergence
In short: as §1

[4] = test system: velvetleaf (Abutilon theophrasti); experiment: Test C preemergence
In short: as §1

[5] = test system: bermudagrass (Cynodon dactylon); experiment: Test C preemergence
In short: as §1

[6] = test system: goosegrass (Eleusine indica); experiment: Test C preemergence
In short: as §1

[7] = test system: johnsongrass (Sorghum halepense); experiment: Test C preemergence
In short: as §1

[8] = test system: woolly cupgrass (Eriochloa villosa); experiment: Test C preemergence
In short: as §1

[9] = test system: corn (Zea mays); experiment: Test C preemergence
In short: as §1

[10] = test system: pigweed (Amaranthus retroflexus); experiment: Test C preemergence
In short: as §1

[11] = test system: crabgrass (Digitaria sanguinalis); experiment: Test C preemergence
In short: as §1

[12] = test system: giant foxtail (Setaria faberii); experiment: Test C preemergence
In short: as §1

[13] = test system: morningglory (Ipomoea hederacea); experiment: Test C preemergence
In short: as §1

[14] = test system: soybean (Glycine max); experiment: Test C preemergence
In short: as §1

[15] = test system: yellow nutsedge (Cyperus esculentus); experiment: Test C preemergence
In short: as §1

[16] = test system: cocklebur (Xanthium strumarium); experiment: Test C preemergence
In short: as §1

[17] = test system: Nightshade; experiment: Test C preemergence
[18] = test system: barnyardgrass (Echinochloa crus-galli); experiment: Test B preemergence
In short: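 Pre: seeded pots sprayed, chemical in non-phytotoxic solvent/surfactant mix. Post: plants 2–18 cm, 1–4 leaf, same formulation. Greenhouse 13–15 d; visual % control vs untreated, 0–100 scale.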

[19] = test system: Sunflower; experiment: Test C preemergence; conditions: Rate 500 g/ha, visual evaluation after 12 to 14 days
[20] = Rate 125 g/ha, scale 0 to 100, 0 no effect, 100 complete control
[21] = preemergence, Rate 62 g/ha, scale 0 to 100
[22] = preemergence, Rate 500 g/ha, visual evaluation after 12 to 14 days
[23] = preemergence, Rate 250 g/ha, scale 0 to 100, 0 no effect, 100 complete control

COc1cc(N2CCC(n3ccc(C(C)(C)C)n3)C2=O)ccc1Br (stereo not shown) [Compound 141]
70: Plant response rating, Velvetleaf [4, 20] | Plant response rating, Velvetleaf [4, 21] | Plant response rating, Velvetleaf [4, 23] | Plant response rating, Soybean [14, 21] | Plant response rating, Cocklebur [16, 23]
100: Plant response rating (0 to 100), Nightshade [1] | Plant response rating, Lambsquarters [2, 20] | Plant response rating, Lambsquarters [2, 21] | Plant response rating (0 to 100), Lambsquarters [2, 22] | Plant response rating, Lambsquarters [2, 23] | Plant response rating, Kochia [3, 20] | Plant response rating, Kochia [3, 21] | Plant response rating (0 to 100), Kochia [3, 22] | Plant response rating, Kochia [3, 23] | Plant response rating (0 to 100), Velvetleaf [4, 22] | Plant response rating, Bermudagrass [5, 20] | Plant response rating, Bermudagrass [5, 21] | Plant response rating (0 to 100 where 0 is no effect and 100 is complete control), Bermudagrass [5, 22] | Plant response rating, Bermudagrass [5, 23] | Plant response rating, Goosegrass [6, 20] | Plant response rating, Goosegrass [6, 21] | Plant response rating (0 to 100), Goosegrass [6, 22] | Plant response rating, Goosegrass [6, 23] | Plant response rating (0 to 100), Johnsongrass [7, 22] | Plant response rating, Cupgrass, Woolly [8, 20] | Plant response rating, Cupgrass, Woolly [8, 21] | Plant response rating (0 to 100), Cupgrass, Woolly [8, 22] | Plant response rating, Cupgrass, Woolly [8, 23] | Plant response rating, Pigweed [10, 20] | Plant response rating, Pigweed [10, 21] | Plant response rating (0 to 100), Pigweed [10, 22] | Plant response rating, Pigweed [10, 23] | Plant response rating, Crabgrass [11, 20] | Plant response rating, Crabgrass [11, 21] | Plant response rating (0 to 100), Crabgrass [11, 22] | Plant response rating, Crabgrass [11, 23] | Plant response rating, Foxtail, Giant [12, 20] | Plant response rating, Foxtail, Giant [12, 21] | Plant response rating (0 to 100), Foxtail, Giant [12, 22] | Plant response rating, Foxtail, Giant [12, 23] | Plant response rating, Morningglory [13, 20] | Plant response rating (0 to 100), Morningglory [13, 22] | Plant response rating, Morningglory [13, 23] | Plant response rating, Soybean [14, 20] | Plant response rating (0 to 100), Soybean [14, 22] | Plant response rating, Soybean [14, 23] | Plant response rating (0 to 100), Cocklebur [16, 22] | Plant response rating, Nightshade ([17]; Rate 62 g/ha, scale 0 to 100) | Plant response rating, Nightshade [17, 20] | Plant response rating, Nightshade ([17]; Rate 250 g/ha, scale 0 to 100, 0 no effect, 100 complete control) | Plant response rating, Barnyardgrass ([18]; Preemergence, Rate 500 g/ha, scale 0 to 100, 0 no effect, 100 complete control) | Plant response rating, Barnyardgrass ([18]; preemergence, Rate 125 g/ha, scale of 0 to 100 where 0 is no effect and 100 is complete control, 13 to 15 days) | Plant response rating (0 to 100), Sunflower [19]
60: Plant response rating, Cocklebur [16, 20]
0: Plant response rating, Johnsongrass [7, 20] | Plant response rating, Johnsongrass [7, 21] | Plant response rating, Johnsongrass [7, 23] | Plant response rating, Corn [9, 21] | Plant response rating, Nutsedge [15, 20] | Plant response rating, Nutsedge [15, 21] | Plant response rating, Nutsedge [15, 23] | Plant response rating, Cocklebur [16, 21]
30: Plant response rating, Corn [9, 20] | Plant response rating (0 to 100), Corn [9, 22] | Plant response rating, Corn [9, 23] | Plant response rating, Morningglory [13, 21]
50: Plant response rating (0 to 100), Nutsedge [15, 22]

— patent US7138361B2, “Herbicidal heterocycles” (E. I. du Pont de Nemours and Company, priority 2000, dated 2006)
